These results are taken from PubChem BioAssay (NCI).

Each structure is given as a SMILES string.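 Test compounds were applied to cells in 96-well plates for 48 hours at 5 doses. The concentration for 50% growth inhibition is given as GI50. The concentration for full growth arrest is given as TGI.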

Among the test systems are HCT-116 colon; MDA-MB-231 breast; OVCAR-4 ovarian; OVCAR-5 ovarian; T-47D breast; HCC-2998 colon; OVCAR-8 ovarian; SF-295 CNS; HL-60(TB) leukemia; NCI-H460 lung.
Holding throughout (assay): NCI tumour cell line growth inhibition, 48 h

For the compound `CCN(CC)c1ccc(C(=N)c2ccc(N(CC)CC)cc2)cc1`, the GI50 with HCT-116 colon was 323 nM; with MDA-MB-231 breast, 1150 nM; in the assay on OVCAR-4 ovarian, 1550 nM; in the assay with OVCAR-5 ovarian, 1530 nM; in the assay with T-47D breast, 311 nM; with HCC-2998 colon, 1100 nM. Besides, the GI50 in the assay on OVCAR-8 ovarian is 905 nM; with SF-295 CNS, 438 nM; in the assay on HL-60(TB) leukemia it was 276 nM; in the assay on NCI-H460 lung, 411 nM. Besides, the TGI was 1350 nM with HCT-116 colon; 3230 nM in the assay on MDA-MB-231 breast; 15900 nM in the assay on OVCAR-4 ovarian; 6070 nM in the assay with OVCAR-5 ovarian; 1730 nM in the assay with T-47D breast; 3170 nM in the assay on HCC-2998 colon. In addition, the TGI in the assay on OVCAR-8 ovarian came out at 3750 nM; in the assay on SF-295 CNS, 2020 nM; in the assay with HL-60(TB) leukemia it was 1130 nM; in the assay with NCI-H460 lung, 1560 nM.
As to `COc1ccc(OC)c(/C=C/C(=O)N/N=C/c2ccc(Cl)cc2)c1`, the GI50 is 57.1 nM with HCT-116 colon; 531 nM with MDA-MB-231 breast; 1410 nM in the assay with OVCAR-4 ovarian; 15300 nM with OVCAR-5 ovarian; 78.6 nM with T-47D breast; 83.1 nM in the assay with HCC-2998 colon. In addition, the GI50 in the assay with OVCAR-8 ovarian was 350 nM; with SF-295 CNS, 70.1 nM; in the assay on HL-60(TB) leukemia, 78.5 nM; in the assay with NCI-H460 lung, 70.4 nM. Further, the TGI with MDA-MB-231 breast is above 100000 nM; in the assay on OVCAR-4 ovarian, above 100000 nM; in the assay with OVCAR-5 ovarian it was above 100000 nM; in the assay on T-47D breast, above 65800 nM; in the assay on HCC-2998 colon, 653 nM; in the assay on OVCAR-8 ovarian it was above 100000 nM. The figures for the TGI in the assay with SF-295 CNS, in the assay on HL-60(TB) leukemia and in the assay with NCI-H460 lung were above 25400 nM, 483 nM and above 37100 nM, respectively.
As to `O=C(c1cccc(O)c1O)c1cn(Cc2ccc(F)cc2)c2cccc(O)c12`, the GI50 was 3280 nM in the assay on HCT-116 colon; 5830 nM in the assay on MDA-MB-231 breast; 3130 nM in the assay with OVCAR-4 ovarian; 9040 nM in the assay on OVCAR-5 ovarian; 3160 nM with T-47D breast; 1550 nM with HCC-2998 colon. Further, the GI50 with OVCAR-8 ovarian is 3560 nM; in the assay with SF-295 CNS, 5650 nM; with HL-60(TB) leukemia, 1360 nM; in the assay with NCI-H460 lung, 2010 nM. In addition, the TGI in the assay on HCT-116 colon worked out at 17100 nM; with MDA-MB-231 breast, 40200 nM; with OVCAR-4 ovarian, 16200 nM; with OVCAR-5 ovarian it was 26400 nM; in the assay with T-47D breast it was 16200 nM; with HCC-2998 colon it was 11400 nM. For the same compound, the TGI is 18900 nM in the assay with OVCAR-8 ovarian, above 46500 nM in the assay with SF-295 CNS, 6930 nM with HL-60(TB) leukemia and 11000 nM with NCI-H460 lung.
For the compound `CCN(CC)c1sc(N(CC)CC)c2c1SSSSS2`, the GI50 was 356 nM with HCT-116 colon; 894 nM in the assay with MDA-MB-231 breast; 697 nM in the assay on OVCAR-4 ovarian; 1520 nM in the assay on OVCAR-5 ovarian; 3170 nM in the assay with T-47D breast; 935 nM in the assay with HCC-2998 colon. Further, the GI50 with OVCAR-8 ovarian was 2180 nM; in the assay with SF-295 CNS, 2090 nM; with HL-60(TB) leukemia, 3080 nM; with NCI-H460 lung, 2480 nM. Also, the TGI in the assay with HCT-116 colon is 1140 nM; in the assay with MDA-MB-231 breast it was 2410 nM; in the assay with OVCAR-4 ovarian it was 2460 nM; in the assay with OVCAR-5 ovarian, 3200 nM; in the assay with T-47D breast it was above 100000 nM; with HCC-2998 colon, 2400 nM. Besides, the TGI is 4700 nM with OVCAR-8 ovarian, 4040 nM in the assay with SF-295 CNS, above 100000 nM in the assay with HL-60(TB) leukemia and 6020 nM in the assay on NCI-H460 lung.
Turning to `COc1cc(OC)c(/C=C/C(=O)c2c(OC)cccc2OC)c(OC)c1`, the GI50 is 394 nM in the assay on HCT-116 colon; 1070 nM in the assay with MDA-MB-231 breast; 19700 nM in the assay with OVCAR-4 ovarian; 2170 nM in the assay with OVCAR-5 ovarian; 383 nM in the assay on T-47D breast; 1150 nM in the assay with HCC-2998 colon. In addition, the GI50 was 1430 nM in the assay on OVCAR-8 ovarian, 395 nM with SF-295 CNS, 348 nM in the assay with HL-60(TB) leukemia and 393 nM in the assay on NCI-H460 lung. Also, the TGI is above 100000 nM in the assay with HCT-116 colon; above 100000 nM in the assay on MDA-MB-231 breast; above 100000 nM with OVCAR-4 ovarian; above 100000 nM with OVCAR-5 ovarian; above 100000 nM in the assay with T-47D breast; 6910 nM in the assay with HCC-2998 colon. Further, the TGI with OVCAR-8 ovarian is above 100000 nM; with HL-60(TB) leukemia, 1820 nM; in the assay on NCI-H460 lung it was above 20300 nM.
Turning to `CC(=O)OC1CC(O)C23COC(O)C1(C)C2CC(O)C1(C)C3C(=O)C(O)C2(C)C(c3ccoc3)CC3OC321` (stereo not given), the GI50 is below 10 nM with HCT-116 colon; above 28700 nM with MDA-MB-231 breast; above 36000 nM in the assay with OVCAR-5 ovarian; 151 nM in the assay with T-47D breast; 420 nM in the assay with HCC-2998 colon; 191 nM in the assay with OVCAR-8 ovarian. In addition, the GI50 in the assay with SF-295 CNS is 52.2 nM; in the assay on HL-60(TB) leukemia, below 10 nM; with NCI-H460 lung, below 48.6 nM. In addition, the TGI in the assay with HCT-116 colon, in the assay on MDA-MB-231 breast, in the assay with OVCAR-4 ovarian, with OVCAR-5 ovarian, with T-47D breast and in the assay on HCC-2998 colon was above 100000 nM each time. Besides, the TGI in the assay with HL-60(TB) leukemia and in the assay on NCI-H460 lung was above 100000 nM in each case.
